{"source": "patent US12018001B2", "about": "“Pyrimidine cyclohexenyl glucocorticoid receptor modulators” (priority 2018, dated 2024)", "data": [{"target": "T1, glucocorticoid receptor (Homo sapiens, UniProt P04150)", "T1 construct": "host or cells: HepG2", "T1 sequence (P04150 1-777)": "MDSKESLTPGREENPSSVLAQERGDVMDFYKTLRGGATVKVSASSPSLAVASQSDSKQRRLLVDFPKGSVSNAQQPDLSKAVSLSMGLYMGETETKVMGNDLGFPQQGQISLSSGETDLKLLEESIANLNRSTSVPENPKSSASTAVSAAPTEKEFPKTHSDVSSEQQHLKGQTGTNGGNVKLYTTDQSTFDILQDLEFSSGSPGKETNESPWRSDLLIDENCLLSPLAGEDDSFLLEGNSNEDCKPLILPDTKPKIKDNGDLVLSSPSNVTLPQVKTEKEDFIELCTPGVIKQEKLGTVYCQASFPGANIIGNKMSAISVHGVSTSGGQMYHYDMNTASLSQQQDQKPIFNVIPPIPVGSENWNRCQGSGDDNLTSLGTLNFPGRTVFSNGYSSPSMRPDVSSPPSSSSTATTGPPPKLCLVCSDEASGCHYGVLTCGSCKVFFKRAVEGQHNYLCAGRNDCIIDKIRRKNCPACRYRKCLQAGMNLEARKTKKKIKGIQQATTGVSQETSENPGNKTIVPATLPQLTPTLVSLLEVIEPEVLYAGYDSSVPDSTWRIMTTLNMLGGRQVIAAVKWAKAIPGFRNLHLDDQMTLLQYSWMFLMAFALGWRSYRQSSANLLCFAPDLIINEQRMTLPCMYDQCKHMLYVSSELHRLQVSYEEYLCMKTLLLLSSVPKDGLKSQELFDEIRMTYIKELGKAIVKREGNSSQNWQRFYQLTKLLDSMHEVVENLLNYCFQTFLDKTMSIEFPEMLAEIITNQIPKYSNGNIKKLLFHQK", "experiment": "Hep G2 TAT assay: induction of TAT by dexamethasone in HepG2 cells", "assay_type": "cell-based", "method": "Glucocorticoid mediated activation of TAT occurs by transactivation of glucocorticoid response elements in the TAT promoter by glucocorticoid receptor-agonist complex.\nTAT activity was measured as outlined in the literature by A. Ali et al., J. Med. Chem., 2004, 47, 2441-2452.\nHepG2 cells were cultured using MEME media supplemented with 10% (v/v) foetal bovine serum; 2 mM L-glutamine and 1% (v/v) NEAA at 37° C., 5%/95% (v/v) CO2/air. The HepG2 cells were counted and adjusted to yield a density of 0.125×10^6 cells/ml in RPMI 1640 without phenol red, 10% (v/v) charcoal stripped FBS, 2 mM L-glutamine and seeded at 25,000 cells/well in 200 μl into 96 well, sterile, tissue culture micro titre plates, and incubated at 37° C., 5% CO2 for 24 hours\nGrowth media was removed and replaced with assay media {RPMI 1640 without phenol red, 2 mM L-glutamine+10 μM forskolin}. […] Compounds were serially half log diluted in 100% (v/v) dimethylsulphoxide from a 10 mM stock.\nHepG2 cells were then lysed with 30 μl of cell lysis buffer containing a protease inhibitor cocktail for 15 minutes at 4° C. 155 μl of substrate mixture was then added containing 5.4 mM Tyrosine sodium salt, 10.8 mM alpha ketoglutarate and 0.06 mM pyridoxal 5′ phosphate in 0.1 M potassium phosphate buffer (pH 7.4). After 2 hours incubation at 37° C. the reaction was terminated by the addition of 15 μl of 10 M aqueous potassium hydroxide solution, and the plates incubated for a further 30 minutes at 37° C. The TAT activity product was measured by absorbance at λ 340 nm.\n[compound] and fitting the data to a 4 parameter logistic equation.", "units": {"Ki": "nM"}, "values": [{"smiles": "CC1(C)CCCN(c2ncccc2C2=CCC(c3[nH]c(=O)[nH]c(=O)c3Cc3ccccc3)CC2)C1", "note": "(stereo not shown) [Example 46]", "Ki": 300}, {"smiles": "O=c1[nH]c(C2CC=C(c3ccc(F)cc3Cl)CC2)c(Cc2ccccc2)c(=O)[nH]1", "note": "(stereo not shown) [Example 9]", "Ki": 26}, {"smiles": "O=c1[nH]c(C2CC=C(c3ccc(C4CC4)cc3F)CC2)c(Cc2ccccc2)c(=O)[nH]1", "note": "(stereo not shown) [Example 111, 5-benzyl-6-(4′-cyclopropyl-2′-fluoro-2,3,4,5-tetrahydro-[1,1′-biphenyl]-4-yl)pyrimidine-2,4(1H,3H)-dione]", "Ki": 113}, {"smiles": "CS(=O)(=O)c1ccc(C2=CCC(c3[nH]c(=O)[nH]c(=O)c3Cc3ccccc3)CC2)c(F)c1", "note": "(stereo not shown) [Example 73]", "Ki": 70}, {"smiles": "Cn1cc(C2=CCC(c3[nH]c(=O)[nH]c(=O)c3Cc3ccccc3)CC2)c(C(F)(F)F)n1", "note": "(stereo not shown) [Example 77]", "Ki": 170}, {"smiles": "O=c1[nH]c(C2CC=C(c3ccc(OCC(F)(F)F)cc3Cl)CC2)c(Cc2ccccc2)c(=O)[nH]1", "note": "(stereo not shown) [Example 87]", "Ki": 453}, {"smiles": "O=c1[nH]c(C2CC=C(c3ccc(C(F)(F)F)cc3F)CC2)c(Cc2ccccc2)c(=O)[nH]1", "note": "(stereo not shown) [Example 37]", "Ki": 140}, {"smiles": "O=c1[nH]c(C2CC=C(c3ccc(C4CC4)cc3C(F)(F)F)CC2)c(Cc2ccccc2)c(=O)[nH]1", "note": "(stereo not shown) [Example 112, 5-benzyl-6-(4′-cyclopropyl-2′-(trifluoromethyl)-2,3,4,5-tetrahydro-[1,1′-biphenyl]-4-yl)pyrimidine-2,4(1H,3H)-dione]", "Ki": 333}, {"smiles": "CC(C)Oc1ccc(C2=CCC(c3[nH]c(=O)[nH]c(=O)c3Cc3ccccc3)CC2)c(F)c1", "note": "(stereo not shown) [Example 68]", "Ki": 497}, {"smiles": "CO[C@H]1CCCN(c2ncccc2C2=CCC(c3[nH]c(=O)[nH]c(=O)c3Cc3ccccc3)CC2)C1", "note": "(stereo partly shown) [Example 49]", "Ki": 280}, {"smiles": "O=c1[nH]c(C2CC=C(c3ccccc3OC(F)(F)F)CC2)c(Cc2ccccc2)c(=O)[nH]1", "note": "(stereo not shown) [Example 26]", "Ki": 50}, {"smiles": "COc1cc(Cl)ccc1C1=CCC(c2[nH]c(=O)[nH]c(=O)c2Cc2ccccc2)CC1", "note": "(stereo not shown) [Example 7]", "Ki": 38}, {"smiles": "C[C@H]1CCCN(c2ncccc2C2=CCC(c3[nH]c(=O)[nH]c(=O)c3Cc3ccccc3)CC2)C1", "note": "(stereo partly shown) [Example 48]", "Ki": 130}, {"smiles": "COc1ccc(C2=CCC(c3[nH]c(=O)[nH]c(=O)c3Cc3ccccc3)CC2)c(Cl)c1", "note": "(stereo not shown) [Example 29]", "Ki": 12}, {"smiles": "CS(=O)(=O)c1ccc(C2=CCC(c3[nH]c(=O)[nH]c(=O)c3Cc3cccc(N4CCCC4)n3)CC2)c(F)c1", "note": "(stereo not shown) [Example 117]", "Ki": 559}, {"smiles": "CN1CCN(C(=O)c2ccc(C3=CCC(c4[nH]c(=O)[nH]c(=O)c4Cc4ccccc4)CC3)c(Cl)c2)CC1", "note": "(stereo not shown) [Example 41, 5-Benzyl-6-(2′-chloro-4′-(4-methylpiperazine-1-carbonyl)-2,3,4,5-tetrahydro-[1,1′-biphenyl]-4-yl)pyrimidine-2,4(1H,3H)-dione]", "Ki": 480}, {"smiles": "COc1ccc(C#N)cc1C1=CCC(c2[nH]c(=O)[nH]c(=O)c2Cc2ccccc2)CC1", "note": "(stereo not shown) [Example 23]", "Ki": 330}, {"smiles": "N#Cc1ccc(C2=CC[C@@H](c3[nH]c(=O)[nH]c(=O)c3Cc3ccccc3)CC2)c(Cl)c1", "note": "(single isomer, unassigned) [Example 40]", "Ki": 42}, {"smiles": "O=c1[nH]c(C2CC=C(c3ccc(OC(F)(F)F)cc3Cl)CC2)c(Cc2ccccc2)c(=O)[nH]1", "note": "(stereo not shown) [Example 60]", "Ki": 41}, {"smiles": "O=c1[nH]c(C2CC=C(c3cccnc3N3CCC(F)(F)CC3)CC2)c(Cc2ccccc2)c(=O)[nH]1", "note": "(stereo not shown) [Example 45]", "Ki": 970}, {"smiles": "O=c1[nH]c(C2CC=C(c3ccc(OC(F)(F)F)c(F)c3F)CC2)c(Cc2ccccc2)c(=O)[nH]1", "note": "(stereo not shown) [Example 92]", "Ki": 803}, {"smiles": "O=c1[nH]c(C2CC=C(c3ccc(Cl)cc3F)CC2)c(Cc2ccccc2)c(=O)[nH]1", "note": "(stereo not shown) [Example 81]", "Ki": 400}, {"smiles": "CC(C)S(=O)(=O)c1ccc(C2=CCC(c3[nH]c(=O)[nH]c(=O)c3Cc3ccccc3)CC2)c(F)c1", "note": "(stereo not shown) [Example 102]", "Ki": 270}, {"smiles": "Cc1ccc(F)cc1C1=CCC(c2[nH]c(=O)[nH]c(=O)c2Cc2ccccc2)CC1", "note": "(stereo not shown) [Example 21]", "Ki": 270}, {"smiles": "CCOc1ccc(C2=CCC(c3[nH]c(=O)[nH]c(=O)c3Cc3ccccc3)CC2)c(C(F)(F)F)c1", "note": "(stereo not shown) [Example 53]", "Ki": 51}]}]}
